Several values for one entry are separate records, joined by “and”; a condition that tells them apart may be missing. Identical values can stand only once.
Assays:
[1] = system: β-glucuronidase in rat colon feces; test: Rat colon fecal homogenate stability assay; format: in vitro ADME; details: in vitro half-life in rat fecal supernatant-homogenate, anaerobic, 10 μM substrate, individual values when assay repeated; for half-life at 10 μM: male, rat, rat colon fecal supernatant-homogenate, read-out: T½
Description: The compounds of the present invention contain a glucuronide prodrug moiety that is expected to be cleaved by β-glucuronidase enzyme. The objective of this assay was to determine the half-life for compounds of the present invention in the presence of β-glucuronidase in rat colon feces.
Following sacrifice of a naïve male rat (˜300 g) by cardiac puncture exsanguination, the colon was ligated and removed to an anaerobic chamber (AS-580, Anaerobe Systems). The fecal content was removed within the chamber and was diluted 1:10 with phosphate buffer (1 gram fecal content to 9 mL phosphate buffer) and the resulting mixture was homogenized using a handheld Omni Tissue Master. The fecal homogenate was centrifuged at 2000 g for 10 min to remove bulk material and the supernatant was removed and used for the incubations.
DMSO stock solutions (10 mM) of the test compounds and sulfasalazine (control) were prepared. Sulfasalazine was used as a positive control to confirm viability of the fecal supernatant-homogenate (see, e.g., Azad Khan et al., Clinical Science (1983) 64, 349-354). If the in vitro half-life (T½) for sulfasalazine in the fecal sample was less than 30 min, the fecal sample was deemed to be viable and in true anaerobic conditions. However, if the T½ for sulfasalazine was greater than 30 min, the fecal sample was typically contaminated with oxygen and was not viable. The final substrate concentration of each assay was 10 μM. Reactions were started by adding a 5 μL aliquot of diluted test compound stock solution into 300 μL of rat fecal supernatant-homogenate. At 0, 15, 30, 60, 90, and 120 min post reaction initiation, a 50 μL aliquot was removed and added to a mixture of 200 μL of acetonitrile with 3% formic acid and an internal standard. All samples were centrifuged at 2000 g for 10 min after which 50 μL of supernatant was diluted into 150 μL of water for analysis on an LC-MS system. In vitro half-lives (T½) for the test compounds were calculated as follows: T½=0.693/elimination rate constant. When the assay was performed more than once, individual values are reported.

[2] = Oral pharmacokinetics in rat assay; format: in vivo; details: liberated tofacitinib AUC0-6 h in colon tissue; male Sprague Dawley rats, single PO dose 5 mg/kg of test compound
Experimental: When cleaved by β-glucuronidase enzyme, the compounds of the present invention release tofacitinib. The object of this assay was to determine tofacitinib exposure (AUC0-6 h) in colon tissue and plasma following oral dosing of compounds of the present invention in rats.
Male Sprague Dawley rats (n=2/time point) received a single PO oral gavage dose (5 mg/kg in 1:20 mixture of 5% DMSO and 1% HPMC) of test compounds. At 0.5, 1, 3, 6 and 24 h post-dosing, rats were sacrificed via cardiac puncture exsanguination, and blood samples were taken and placed into sample tubes (Microtainer, Becton, Dickinson and Company) containing sodium fluoride and then placed on ice. Plasma was obtained by centrifugation (Eppendorf centrifuge, 5804R) for 4 minutes at approximately 12,000 rpm at 4° C.
The colons were removed from exsanguinated rats and the colon contents gently removed. The colons were flushed with saline and patted dry. The colons were then homogenized in 3× the weight of sterile water using a tissue homogenizer (Precellys homogenizer, Bertin Instruments) at approximately 4° C. All samples were stored at −80° C. for later bioanalysis.
The concentration of tofacitinib in each sample was determined as follows: the plasma and colon samples were vortexed, combined with a 50 μL aliquot of rat plasma, extracted with 200 μL of ACN containing an internal standard and quantified against the internal standard by LC-MS. An area-under-the-concentration curve (AUC0-6 h) was calculated for plasma and colon test compound and liberated tofacitinib. A key parameter to assess suitability for localized delivery of tofacitinib to the colon was the tofacitinib colon to plasma AUC ratio.

[3] = system: oxazolone-induced colitis; test: Mouse model of oxazolone-induced colitis; format: in vivo; details: PO, BID, BALB/C mice, vs vehicle/oxazolone, p<0.05
Experimental: Oxazolone-induced colitis is an experimental model that has a histological resemblance to human ulcerative colitis (Heller et al. […], 2002, 17, 629-638). Adult BALB/C mice (25-28 g, 9-12 weeks of age) from BioNeeds (India) were used in the assay. On Day 1, animals were lightly anesthetized with isoflurane and the hairs between the shoulder were carefully removed. Oxazolone (6 mg/mouse, 100 μL, 4:1 acetone:olive oil formulation) or vehicle solution was slowly applied to the bare skin patch to induce skin sensitization. Six days after skin sensitization, the mice were fasted overnight and then anesthetized with ketamine and xylazine administered intraperitoneally. A 1 mL syringe filled with oxazolone solution (0.5 mg/50 μL/mouse in 50% ethanol) or 50% ethanol/saline was inserted carefully ˜3.8 cm into the colon of the mouse. Animals were kept in a head down position and oxazolone or vehicle solution was rectally instilled very slowly over a minute. The mice were held vertically (head down) for another minute to ensure that the entire oxazolone or vehicle solution remained inside the colon. Test compound treatment (PO, BID or TID) or vehicle was initiated the evening prior to the oxazolone intrarectal (IR) challenge. On both first (Day 1) and second (Day 2) days post-oxazolone IR challenge, the Disease Activity Index (DAI) was assessed by treatment-blinded experimenters for each mouse, according to the following subscores: stool consistency (0, normal; 2, loose; 4, diarrhea), gross bleeding and hemoccult test (0, absence; 2, blood tinged; 4, overt blood presence), and weight loss (0, none; 1, 1%-5%; 2, 6^%-10%; 3, 11%-15%; 4, more than 15%); DAI=average of (stool consistency+blood presence+weight loss scores).
An area-under-the-curve (AUC) calculation based on total DAI scores was performed to track disease progression during the course of the experiment. AUC for each experimental group was calculated as: AUC=[(Day 1−Day 0)*Average (DAI Score of Day 0 & Day 1)]+[(Day 2−Day 1)*Average (DAI Score of Day 1 & Day 2)]. A Student's t-test compared the DAI AUC score of the vehicle/vehicle and vehicle/oxazolone groups to evaluate whether disease was induced following oxazolone treatment. This was followed by a one-way analysis of variance (ANOVA), with Dunnett's post hoc test, to compare the DAI AUC score of the vehicle/oxazolone and test compound/oxazolone groups. Statistical significance was defined by an α level set at p<0.05.

[4] = Oral pharmacokinetics in mouse assay; format: in vivo; details: liberated tofacitinib AUC0-6 h in colon tissue; male Balb/c mice, single PO dose 5 mg/kg of test compound
Experimental: When cleaved by β-glucuronidase enzyme, the compounds of the present invention release tofacitinib. The object of this assay was to determine tofacitinib exposure (AUC0-6 h) in colon tissue and plasma following oral dosing of compounds of the present invention in mice.
Male Balb/c mice (n=2/time point) received a single PO oral gavage dose (5 mg/kg in 1:20 mixture of 5% DMSO and 1% HPMC) of the test compound. At 2 h and 6 h post-dosing, mice were sacrificed via cardiac puncture exsanguination and blood samples were taken and placed into sample tubes (Microtainer, Becton, Dickinson and Company) containing sodium fluoride and then placed on ice. Plasma was obtained by centrifugation (Eppendorf centrifuge, 5804R) for 4 min at approximately 12,000 rpm at 4° C.
The colons were removed from the exsanguinated mice and the colon fecal contents were gently removed. The colons were flushed with saline and patted dry. […]
The concentration of tofacitinib in each sample was determined as follows: the plasma and colon homogenate samples were vortexed, combined with a 50 μL aliquot of rat plasma, extracted with 200 μL of ACN containing an internal standard and quantified against the internal standard by LC-MS. An area-under-the-concentration curve (AUC0-6 h) was calculated for plasma and colon test compound and liberated tofacitinib. […]

Row | SMILES | T½ [1] | half-life at 10 μM [1] | Colon AUC [2] | reversal of oxazolone-induced colitis (DAI AUC score) ([3]; 3 and 30 mg/kg) | Colon AUC [4] | reversal of oxazolone-induced colitis (DAI AUC score) ([3]; 30 mg/kg) | reversal of oxazolone-induced colitis (DAI AUC score) ([3]; 3, 10 and 30 mg/kg)
1 | C[C@@H]1CCN(C(=O)CC#N)C[C@@H]1N(C)c1ncnc2c1ccn2C(=O)N(C)CCN(C)C(=O)O[C@@H]1O[C@H](C(=O)O)[C@@H](O)[C@H](O)[C@H]1O [Compound II-1, (2S,3S,4S,5R,6S)-6-(((2-(4-(((3R,4R)-1-(2-Cyanoacetyl)-4-methylpiperidin-3-yl)(methyl)amino)-N-methyl-7H-pyrrolo[2,3-d]pyrimidine-7-carboxamido)ethyl)(methyl)carbamoyl)oxy)-3,4,5-trihydroxytetrahydro-2H-pyran-2-carboxylic Acid] | 16 min and < 15 min | 14 min | 20.2 µg·h/g | statistically significant reversal |  |  | 
2 | C[C@@H]1CCN(C(=O)CC#N)C[C@@H]1N(C)c1ncnc2c1ccn2C(=O)N(C)c1cc([N+](=O)[O-])ccc1O[C@@H]1O[C@H](C(=O)O)[C@@H](O)[C@H](O)[C@H]1O [Compound III-1, (2S,3S,4S,5R,6S)-6-(2-(4-(((3R,4R)-1-(2-Cyanoacetyl)-4-methylpiperidin-3-yl)(methyl)amino)-N-methyl-7H-pyrrolo[2,3-d]pyrimidine-7-carboxamido)-4-nitrophenoxy)-3,4,5-trihydroxytetrahydro-2H-pyran-2-carboxylic Acid] |  | 2 min |  |  | 6.07 µg·h/g | statistically significant reversal | 
3 | C[C@@H]1CCN(C(=O)CC#N)C[C@@H]1N(C)c1ncnc2c1ccn2C(=O)N(C)c1ccccc1O[C@@H]1O[C@H](C(=O)O)[C@@H](O)[C@H](O)[C@H]1O [Compound III-2, (2S,3S,4S,5R,6S)-6-(2-(4-(((3R,4R)-1-(2-Cyanoacetyl)-4-methylpiperidin-3-yl)(methyl)amino)-N-methyl-7H-pyrrolo[2,3-d]pyrimidine-7-carboxamido)phenoxy)-3,4,5-trihydroxytetrahydro-2H-pyran-2-carboxylic Acid] | 29 min and < 15 min | 20 min | 33.2 µg·h/g |  |  |  | statistically significant reversal
